What is called T/C is the result in the treated group divided by that in the control group, in per cent. As a reminder, the IC50 is the midpoint of a concentration-inhibition curve. A higher IC50 goes with weaker potency in that assay.

We go through six compounds from US4861774A, “Method of treating tumors using tetracyclo compounds” (priority 1984, dated 1989).

≈ marks a conversion by molar mass, not a printed value. Where only a bound is given, the exact number is not on record here.

In series [1] the test system is Human LX-1 lung. Description: Human LX-1 lung tumor in nude mice (Test 9). Format: in vivo, human (in BALB/c nu/nu mice). The conditions noted are these: 5.6 mg/kg i.v., days 10, 14 & 17; evaluation day 21. On the procedure:
(§1) Human LX-1 lung or MX-1 mammary (each fragment, 2×2×2 mm), maintained s.c. by serial passage in male BALB/c nu/nu mice, was implanted s.c. to male BALB/c nu/nu mice on day 0, and the test compounds or vehicle were given i.v. to the mice once a day on specified days in Table 9.
(§2) Tumor weight was calculated as follows: (Tumor length and width were measured by caliper.)
(§3) Tumor weight (mg)=1/2×a×b^2, where a represents length and b represents width (mm).
(§4) Tumor weights (initial) and (last) were calculated on the first injection day (just before dosing) and on day 21, 27 or 28 (the last evaluation day), respectively.
(§5) Five mice were used for each test group and 5 or 10 mice were used for each vehicle-treated control group.
(§6) Drug efficacy was expressed as percentage of mean tumor weight of the test group to that of the control group. [formula]

Series [2] concerns L1210 Leukemia. Description: L1210 Leukemia in mice, graded doses (Test 11). The class given is in vivo, mice (CDF1). The conditions noted are these: days 1-9. Here is the method: L1210 Leukemia (1×10^5 cells), maintained i.p. by serial passage in female DBA/2 mice, was implanted i.p. to female CDF1 mice on day 0, and the test compounds or vehicle were given i.p. to the mice once a day on days 1-9.
(§7) Ten mice were used for each test group, and twenty mice were used for each vehicle-treated control group.
(§8) Compound R (which was dissolved in 10% polyoxyethylated (60 mol) hydrogenated castor oil in physiological saline solution)
(§9) Drug efficacy against the ascitic tumors is expressed as percentage of the median (mean) survival time of the test group to that of the control group. [formula]

For series [3], the system named is B16 Melanoma. Briefly: B16 Melanoma in mice, graded doses (Test 11). The class given is in vivo, mice (BDF1). The conditions noted are these: days 1-9. Here is the method:
(§10) B16 Melanoma (1:10 brei, 0.5 ml), maintained s.c. by serial passage in female C57BL/6 mice, was implanted i.p. to female BDF1 mice on day 0, and the test compounds or vehicle were given i.p. to the mice once a day on days 1-9.
as §7, §8, §9

Series [4] relates to Colon 38 carcinoma. Description: in vivo murine solid tumor model, Colon 38 carcinoma (Test 7). More on the design: species or system mice. The conditions noted are these: 10.0 mg/kg i.v., days 1, 4, 7 and 10; tumor weight on day 21. Here is the method: Colon 38 carcinoma (fragment, 2×2×2 mm), maintained s.c. by serial passage in female C57BL/6 mice, was implanted s.c. to female BDFhd 1 mice on day 0, and the test compounds or vehicle were given i.v. to the mice once a day on days 1, 4, 7 and 10. Tumor weight was measured on day 21.
as §2, §3
Ten mice were used for each test group or vehicle-treated control group.
Drug efficacy against the solid tumor is expressed as percentage of the mean tumor weight of the test group to that of the control group. [formula]

Series [5] concerns Human MX-1 mammary. Description: Human MX-1 mammary tumor in nude mice (Test 9). The class given is in vivo, human (in BALB/c nu/nu mice). The note with it: 32. mg/kg (so in the source) i.v., days 10, 14 & 17; evaluation day 21. On the procedure: as §1, §2, §3, §4, §5, §6
Series [6] relates to B16 Melanoma. Description: B16 Melanoma in mice (Test 5). Format: in vivo, mice (BDF1). The note with it: 3.2 mg/kg i.p., days 1-9; in physiological saline. Here is the method:
as §10, §7
(§11) Drug efficacy against the ascitic tumors is expressed as percentage of the median (mean) survival time of the test group to that of the control group. [formula] .circle.2 Results

Series [7] has as its system mouse lymphocytic leukemia P388 tumor cells. Briefly: in vitro cytotoxicity, P388 tumor cells, 72 hours (Test 4). Format: cell-based. The conditions noted are these: 50% inhibition of cell growth, 37° C. On the procedure: A suspension of mouse lymphocytic leukemia P388 tumor cells was prepared from a diluted ascitic fluid using Hanks' solution after 7 days of tumor implantation, and centrifuged at 1000 rpm for 15 minutes at cold temperature. The cells were adjusted at a concentration of 2.5×10^6 cell/ml in MEM Dulbecco medium supplemented with 10% foetal bovine serum, penicillin G (60 μg/ml) and streptomycin (20 μg/ml). Then, cells were treated with the graded doses of the test compounds in plastic tissue culture dishes at 37° C. and incubated for 72 hours in humidified atmosphere of 5% carbon dioxide. Concentration of the substance required for 50% inhibition of cell growth (IC50 value) (μg/ml) was determined by plotting the logarithms of the drug concentration versus the growth rate (percentage of control) of the treated cells.

The nature of series [8]: Solubility.
In series [9] the test system is L1210 Leukemia. Briefly: L1210 Leukemia ascitic tumor in mice (Test 5). Format: in vivo, mice (BDF1 or CDF1). The conditions noted are these: 10.0 mg/kg i.p., days 1-9, CDF1 mice; in physiological saline.
Description: L1210 Leukemia (1×10^5 cells), maintained i.p. by serial passage in female DBA/2 mice, was implanted i.p. to female BDF1 or CDF1 mice on day 0, and the test compounds or vehicle were given i.p. to the mice once a day on days 1-9.
as §7, §11

Consider `CC(=O)Oc1cc(C=O)cc2c1C(COC(N)=O)C1(OC(C)=O)ON2CC2C1N2C(C)=O` (stereo not drawn) [Compound R, 11-Acetyl-4-formyl-8-carbamoyloxymethyl-14-oxa-1,11-diazatetracyclo[7.4.1.0^2,7.0^10,12]tetradeca-2,4,6-trien-6,9-diyl diacetate], for which the “1-T"/C"” value in series [1] worked out at 90%; in series [5], 99%. Moreover, the T/C is reported as 125% in series [2] (0.1 mg/kg i.p.); 131% in series [2] (0.32 mg/kg i.p.); 156% in [2] (1.0 mg/kg i.p.); 150% in series [2] (3.2 mg/kg i.p.); 163% in series [2] (5.6 mg/kg i.p.); 106% in series [2] (10 mg/kg i.p.). Further, the T/C in series [2] (18 mg/kg i.p.) was determined as 88%; in [3] (0.0032 mg/kg i.p.), 106%; in series [3] (0.01 mg/kg i.p.), 122%; in series [3] (0.032 mg/kg i.p.), 166%; in series [3] (0.1 mg/kg i.p.), 219%; in series [3] (0.32 mg/kg i.p.), 213%. The T/C is above 291% in series [3] (0.56 mg/kg i.p.); above 375% in [3] (1.0 mg/kg i.p.); above 375% in series [3] (1.8 mg/kg i.p.); 225% in series [3] (3.2 mg/kg i.p.); 134% in [3] (5.6 mg/kg i.p.); 66% in series [3] (10 mg/kg i.p.). Moreover, the figures for the T/C in [6] and in series [9] were above 316% and 197%, respectively. Besides, in series [4], the “1-T'/C'” value amounted to 100%. Also, the IC50 in [7] was 0.05 µg/mL. Also, the Solubility result in series [8] (acetone) was “Soluble”; in series [8] (chloroform) it was “Soluble”; in [8] (methanol), “Soluble”; in series [8] (water), “Insoluble”.

With `C=C1c2c(OC(C)=O)cc(C=O)cc2N2CC3C(N3C(C)=O)C1(O)O2` (stereo not drawn) [Compound S, 11-Acetyl-4-formyl-9-hydroxy-8-methylene-14-oxa-1,11-diazatetracyclo[7.4.1.0^2,7.0^10,12]tetradeca-2,4,6-trien-6-yl acetate], the IC50 in series [7] was 0.02 µg/mL.

`CC(=O)OCc1cc(OC(C)=O)c2c(c1)N1CC3C(N3C(C)=O)C(O)(O1)C2COC(N)=O` (stereo not drawn) [Compound T, 11-Acetyl-4-acetoxymethyl-8-carbamoyloxymethyl-9-hydroxy-14-oxa-1,11-diazatetracyclo[7.4.1.0^2,7.0^10,12]tetradeca-2,4,6-trien-6-yl acetate] gave an IC50 in [7] of 0.02 µg/mL.

With `CC(=O)OCc1cc(OC(C)=O)c2c(c1)N1CC3C(N3C(C)=O)C(OC(C)=O)(O1)C2COC(N)=O` (stereo not drawn) [Compound U, 4-Acetoxymethyl-11-acetyl-8-carbamoyloxymethyl-14-oxa-1,11-diazatetracyclo[7.4.1.0^2,7.0^10,12]tetradeca-2,4,6-trien-6,9-diyl diacetate], the IC50 in series [7] was 0.01 to 0.02 µg/mL.

Compound `COc1cc(C=O)cc2c1C(COC(N)=O)C1(OC(C)=O)ON2CC2C1N2C(C)=O` (stereo not drawn) [Compound V, 11-Acetyl-8-carbamoyloxymethyl-4-formyl-6-methoxy-14-oxa-1,11-diazatetracyclo[7.4.1.0^2,7.0^10,12]tetradeca-2,4,6-trien-9-yl acetate] showed an IC50 in series [7] of 0.02 µg/mL.

Turning to `COc1cc(C=O)cc2c1C(COC(N)=O)C1(O)ON2CC2C1N2C(C)=O` (stereo not drawn) [Compound W, 11-Acetyl-4-formyl-9-hydroxy-6-methoxy-14-oxa-1,11-diazatetracyclo[7.4.1.0^2,7.0^10,12]tetradeca-2,4,6-trien-8-ylmethyl carbamate], in [7], the IC50 came out at 0.01 µg/mL (≈ 0.0265 µM).
